Values of other authors in patent publication US20230113077A1, “CONTROLLED RELEASE SELEXIPAG COMPOSITION” (ACTELION PHARMACEUTICALS LTD, priority 2020, published 2023).

Conditions: phase III clinical trial; patients with pulmonary arterial hypertension; selexipag versus placebo

SMILES: CC(C)N(CCCCOCC(=O)NS(C)(=O)=O)c1cnc(-c2ccccc2)c(-c2ccccc2)n1 [selexipag, 2-{4-[N-(5,6-diphenylpyrazin-2-yl)-N-isopropylamino]butyloxy}-N-(methylsulfonyl)acetamide]
- risk of the primary composite end point of death or a complication related to pulmonary arterial hypertension: significantly lower
